Assay results reported in article PMC6713120, “Kinetic and thermodynamic characterisation of HIV-protease inhibitors against E35D↑G↑S mutant in the South African HIV-1 subtype C protease” (Journal of Enzyme Inhibition and Medicinal Chemistry, 2019).
Where “and” joins values, the source holds several entries; their conditions need not be identical. Equal values may be shown once.

What was measured:
[1] = target: wild type C-SA HIV protease (Human immunodeficiency virus type 1 group M subtype C, UniProt Q994Q3); assay: Inhibition of chromogenic substrate hydrolysis by wild type C-SA HIV protease; assay type: biochemical, HIV-1 subtype C; conditions: for IC50: wild type C-SA protease, n = 3, read-out: WT IC50; for Ki / ΔG (Gibbs free binding energy): wild type; for Ki: 37 °C, pH 5.0; for ΔG (Gibbs free binding energy): calculated from Ki, ΔG=RTlnKi
Experimental: (§1) Enzymatic activity of the HIV-1 C-SA and mutant (E35D↑G↑S) protease was measured by following the hydrolysis of the HIV-PR chromogenic substrate, Lys-Ala-Arg-Val-Nle-nPhe-Glu-Ala-Nle-NH2 as reported before[13]^,[15]. The substrate resembles the conserved protease cleavage site, KARVL/AEAM[8] between the capsid protein and the […] in the Gag-polyprotein precursor. Hydrolysis of the HIV chromogenic substrate was characterised by the decrease in absorbance at 300 nm. Catalytic properties such as the Km, kcat, and kcat/Km of the proteases were determined. All catalytic activity assays were performed using a Jasco V-630 spectrophotometer (Jasco International co., LTD, Japan).
(§2) This was done by monitoring the rate of chromogenic substrate hydrolysis using 2 µM protease in 50.0 mM sodium acetate, 0.1 M NaCl, pH 5.0, and (0–250 µM) substrate in increasing amounts of inhibitor (0–10 nM).
(§3) The Ki values were estimated using a competitive inhibition equation (Equation 1) according to Williams et al..

[2] = target: T1, E35D↑G↑S mutant HIV-1 subtype C protease (Human immunodeficiency virus type 1 group M subtype C, UniProt Q994Q3, D118E/E93D/I94G/INS93GS); conditions: mutant-wild type
Experimental: Quenching experiments were performed according to the method reported by Maseko et al.[15]. Spectrofluorimetry was used to determine structural changes induced in HIV protease by the interaction of the inhibitors with the purified enzymes using Jasco V-630 spectrofluorimeter (Jasco International co., LTD, Japan). The excitation wavelength was fixed at 295 nm, the wavelength at which tryptophan absorbs and the emission wavelength measured was at […]. The change in fluorescence of a solution was monitored over 10 min, as increasing concentrations of inhibitors were added to a reaction mixture of HIV protease in 50 mM sodium acetate, 1 M NaCl, pH 5 in a final volume of […]. All fluorescence quenching experiments were performed at 4 different temperatures (293 K, 298 K, 303 K, 310 K). The following equations are applicable. (1) F0/F=1+KsvQ (2) lnKsv=−(ΔH/RT)+(ΔS/R) where F0 and F are the florescence in the absence and presence of quencher, Ksv is the Stern Volmer constant, Q is the quencher (drug), ΔH is the enthalpy, ΔS is entropy, R is the gas constant and T is the experimental temperature. The equation is developed from Van’t Hoff relationship. (3) ΔG=RTlnKi
Thermodynamic parameters were calculated from the Stern Volmer and Van’t Hoff plots (Figures S3 and S4). From these plots, ΔH and ΔS values for each drug were calculated. ΔG values were calculated from the Ki values from Equation (3).

[3] = target: T1, E35D↑G↑S mutant HIV-1 subtype C protease; assay: biochemical; conditions: for IC50: E35D↑G↑S IC50, mutant E35D↑G↑S, n = 3; for Ki ratio / reduced activity in comparison to the wildtype: mutant versus wild type; for ΔΔG: mutant-wild type; for log vitality: v = (Ki × Kcat/Km)MUT/(Ki × Kcat/Km)WT, wild type as reference; for ΔG (Gibbs free binding energy): calculated from Ki, ΔG=RTlnKi
Experimental: as §1, §2
This is done by introducing the term “vitality” which is a measure of resistance. Vitality, v, is defined as v = (Ki × Kcat/Km)MUT/(Ki × Kcat/Km)WT, and predicts the therapeutic effect of a given protease inhibitor.
as §3

Row | Structure (SMILES) | IC50 [1] | ΔΔH [2] | −TΔΔS [2] | IC50 [3] | Ki ratio [3] | ΔΔG [3] | log vitality [3] | ΔG (Gibbs free binding energy) ([3]; mutant E35D↑G↑S) | reduced activity in comparison to the wildtype [3] | Ki [3] | Ki [1] | ΔG (Gibbs free binding energy) [1] | log Ki ([3]; mutant E35D↑G↑S, logarithm of Ki in nM, 37 °C, pH 5.0)
1 | Cc1cccc(C)c1OCC(=O)N[C@@H](Cc1ccccc1)[C@@H](O)C[C@H](Cc1ccccc1)NC(=O)[C@H](C(C)C)N1CCCNC1=O [LPV, Lopinavir] | 2.99 ± 0.01 nM | −13.1 ± 0.9 | 14.7 ± 0.1 | 51.7 ± 0.8 nM | 12 ± 0.1 | 1.6 ± 0.3 kcal/mol | ~1.00 | – | – | – | – | – | –
2 | CC(C)(C)NC(=O)[C@@H]1C[C@@H]2CCCC[C@@H]2CN1C[C@@H](O)[C@H](Cc1ccccc1)NC(=O)[C@H](CC(N)=O)NC(=O)c1ccc2ccccc2n1 [SQV, Saquinavir] | 0.77 ± 0.05 nM | 2.9 ± 0.1 | 0.4 ± 0.0 | 114 ± 1.2 nM | 215 ± 2.0 | 3.3 ± 0.5 kcal/mol | around two | – | – | – | – | – | –
3 | CC(C)c1nc(CN(C)C(=O)N[C@H](C(=O)N[C@@H](Cc2ccccc2)C[C@H](O)[C@H](Cc2ccccc2)NC(=O)OCc2cncs2)C(C)C)cs1 [RTV, Ritonavir] | – | 6.8 ± 0.1 | 5.8 ± 0.2 | – | – | 0.93 kcal/mol and 0.9 ± 0.1 kcal/mol | 0.30 | -12.96 kcal/mol | 5 folds | – | – | – | –
4 | Cc1c(O)cccc1C(=O)N[C@@H](CSc1ccccc1)[C@H](O)CN1C[C@H]2CCCC[C@H]2C[C@H]1C(=O)NC(C)(C)C [NFV, Nelfinavir] | 1.99 ± 0.05 nM | 2.3 ± 0.0 | −1.8 ± 0.0 | 1401 ± 3 nM | 532 ± 2 | 4.1 ± 0.2 kcal/mol | around two | – | – | 174 nM | – | – | –
5 | CCC[C@@]1(CCc2ccccc2)CC(O)=C([C@H](CC)c2cccc(NS(=O)(=O)c3ccc(C(F)(F)F)cn3)c2)C(=O)O1 [TPV, Tipranavir] | 1.55 ± 0.02 nM | 3.2 ± 0.2 | −7.1 ± 0.1 | 203 ± 2.6 nM | 292 ± 4.0 | 3.7 ± 0.1 kcal/mol | around two | – | – | – | 0.513 nM | -13.19 kcal/mol | –
6 | COC(=O)N[C@H](C(=O)N[C@@H](Cc1ccccc1)[C@@H](O)CN(Cc1ccc(-c2ccccn2)cc1)NC(=O)[C@@H](NC(=O)OC)C(C)(C)C)C(C)(C)C [ATV, Atazanavir] | 1.07 ± 0.08 nM | 3.1 ± 0.1 | −1.5 ± 0.1 | 685 ± 3 nM | 1828 ± 2.0 | 4.6 ± 0.2 kcal/mol | highest vitality value | – | – | 145 nM | 0.0776 nM | -14.35 kcal/mol | –
7 | CC(C)CN(C[C@@H](O)[C@H](Cc1ccccc1)NC(=O)O[C@H]1CO[C@H]2OCC[C@H]21)S(=O)(=O)c1ccc(N)cc1 [DRV, Darunavir] | 1.07 ± 0.04 nM | 2.1 ± 0.0 | −1.8 ± 0.1 | 154 ± 2 nM | 560 ± 3.0 | 3.9 ± 0.5 kcal/mol | around two | – | – | – | – | – | –
8 | CC(C)CN(C[C@@H](O)[C@H](Cc1ccccc1)NC(=O)O[C@H]1CCOC1)S(=O)(=O)c1ccc(N)cc1 [APV, Amprenavir] | 0.81 ± 0.04 nM | 12.9 ± 0.8 | 12.1 ± 0.2 | 4.1 ± 0.05 nM | 4 ± 0.1 | 0.80 kcal/mol and 0.80 ± 0.1 kcal/mol | 0.36 | -13.12 kcal/mol | 4 folds | – | – | – | negative
9 | CC(C)(C)NC(=O)[C@@H]1CN(Cc2cccnc2)CCN1C[C@@H](O)C[C@@H](Cc1ccccc1)C(=O)N[C@H]1c2ccccc2C[C@H]1O [IDV, Indinavir] | 3.44 ± 0.06 nM | −0.1 ± 0.0 | 1.8 ± 0.3 | 33.6 ± 1 nM | 20 ± 0.5 | 1.9 ± 0.6 kcal/mol | ~1.00 | – | – | – | – | – | –
